Laboratory results published in the supplement of paper PMC10307832.

Legend:
Test in all cases: relative viability (nuclei count vs DMSO), 5 days (fraction); higher = more cells survive
AZ3146 + Vorinostat = compound: CN1CCC(CC1)OC2=CC(=C(C=C2)NC3=NC=C4C(=N3)N(C(=O)N4C)C5CCCC5)OC [AZ3146] + O=C(CCCCCCC(=O)Nc1ccccc1)NO [Vorinostat] (partner 1 µM)
Summary of the method: (§1)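 Values are medians from duplicate plates. Each reflects relative viability, defined as the nuclei count of treated wells over that of vehicle wells. Lung cancer cell lines in 1536-well plates were pin-tool dosed one day after seeding with one drug alone or with a fixed anchor-drug dose plus five library-drug doses (not always all listed) in √10 steps, then fixed, stained and imaged at 4× after 5 days.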

AZ3146 + Lapatinib = compound: CN1CCC(CC1)OC2=CC(=C(C=C2)NC3=NC=C4C(=N3)N(C(=O)N4C)C5CCCC5)OC [AZ3146] + CS(=O)(=O)CCNCc1ccc(-c2ccc3ncnc(Nc4ccc(OCc5cccc(F)c5)c(Cl)c4)c3c2)o1 [Lapatinib] (partner 2 µM)
Summary of the method: as §1

GSK-J4 + Phenformin = compound: CCOC(=O)CCNc1cc(N2CCc3ccccc3CC2)nc(-c2ccccn2)n1 [GSK-J4] + N=C(N)NC(=N)NCCc1ccccc1 [Phenformin] (partner 250 µM)
Summary of the method: as §1

GSK-J4 + Vorinostat = compound: CCOC(=O)CCNc1cc(N2CCc3ccccc3CC2)nc(-c2ccccn2)n1 [GSK-J4] + O=C(CCCCCCC(=O)Nc1ccccc1)NO [Vorinostat] (partner 1 µM)
Summary of the method: as §1

Cell Line | relative viability (AZ3146 + Vorinostat; first compound 0.08 µM) | relative viability (AZ3146 + Vorinostat; first compound 0.253 µM) | relative viability (AZ3146 + Vorinostat; first compound 0.8 µM) | relative viability (AZ3146 + Vorinostat; first compound 2.53 µM) | relative viability (AZ3146 + Vorinostat; first compound 8 µM) | relative viability (AZ3146 + Lapatinib; first compound 0.08 µM) | relative viability (AZ3146 + Lapatinib; first compound 0.253 µM) | relative viability (AZ3146 + Lapatinib; first compound 0.8 µM) | relative viability (AZ3146 + Lapatinib; first compound 2.53 µM) | relative viability (AZ3146 + Lapatinib; first compound 8 µM) | relative viability (GSK-J4 + Phenformin; first compound 0.5 µM) | relative viability (GSK-J4 + Phenformin; first compound 1.581 µM) | relative viability (GSK-J4 + Phenformin; first compound 15.81 µM) | relative viability (GSK-J4 + Phenformin; first compound 50 µM) | relative viability (GSK-J4 + Vorinostat; first compound 0.5 µM) | relative viability (GSK-J4 + Vorinostat; first compound 1.581 µM) | relative viability (GSK-J4 + Vorinostat; first compound 15.81 µM) | relative viability (GSK-J4 + Vorinostat; first compound 50 µM) | relative viability (GSK-J4 + Phenformin; first compound 5 µM) | relative viability (GSK-J4 + Vorinostat; first compound 5 µM)
HCC-366 | 0.192 | 0.408 | 0.352 | 0.278 | 0.14 | 1 | 1.1 | 1.01 | 0.964 | 0.693 | 0.574 | 0.579 | 0.482 | 0.59 | 0.284 | 0.287 | 0.285 | 0.34 |  | 
NCI-H1651 | 0.428 | 0.519 | 0.477 | 0.512 | 0.568 | 0.757 | 0.854 | 0.815 | 0.921 | 0.636 | 0.294 | 0.308 | 0.384 | 0.392 | 0.607 | 0.537 | 0.448 | 0.464 | 0.348 | 0.558
ABC-1 | 0.618 | 1.02 | 1.53 | 1.2 | 1.16 | 1.24 | 1.15 | 1.33 | 1.31 | 1.11 | 0.232 | 0.259 | 0.217 | 0.201 | 1.2 | 1.31 | 0.704 | 0.555 | 0.245 | 0.879
LOU-NH91 | 0.866 | 0.837 | 0.968 | 1 | 0.832 | 0.969 | 0.739 | 0.692 | 0.768 | 0.777 | 0.716 | 0.69 | 0.647 | 0.802 | 1.02 | 0.868 | 0.841 | 0.902 | 0.561 | 0.668
NCI-H520 | 0.588 | 0.7 | 0.685 | 0.783 | 0.537 | 0.797 | 0.84 | 0.838 | 0.965 | 0.576 | 0.582 | 0.478 | 0.303 | 0.445 | 0.644 | 0.527 | 0.659 | 0.648 | 0.46 | 0.69
H3255 | 0.737 | 0.746 | 0.856 | 0.887 | 0.897 | 0.23 | 0.216 | 0.186 | 0.267 | 0.245 | 0.331 | 0.381 | 0.312 | 0.365 | 0.716 |  | 0.742 | 0.742 | 0.36 | 0.656
